According to patent US5026731A, “Pharmaceutical composition and method of treating psychoses” (Schering Corporation, priority 1990, dated 1991):

Assays:
dopamine D-1 receptor = molecular target: T1, dopamine D-1 receptor (Bos taurus, UniProt Q95136); assay: Competitive inhibition binding assay, 3H-Sch 23390 (D1-binding), bovine striatal membranes; conditions: for Ki: 3H-Sch 23390 binding, bovine striatal membranes, 30 minute at 37° C., Tris-HCl pH 7.4
T1 construct: Striata were dissected on ice and membranes prepared as described earlier; from tissue; host or cells: bovine striatum (membranes; brains from a local slaughter house)
Method: (§1) Compounds of represented by formula I may be synthesized as disclosed herein and diluted in 0.05M Tris buffer, pH 7.4, as required.
(§2) Bovine brains were obtained from a local slaughter house, on ice. […] Briefly, the striata were homogenized in 20 volumes of Tris-HCl (50 mM) buffer, pH 7.4, using a Polytron (Brinkmann) homogenizer, setting 7; membranes were washed by centrigugation (20,000×g) and resuspending in buffer, twice, and finally resuspended in assay buffer (Tris-HCl, 50 mM, pH 7.4, containing 120 mM NaCl, 5 mM KCl, […], 1 mM MgCl2). At least 3-4 different pools of membrane were processed and stored at -80° C.
(§3) For competition studies, several concentration of test drug or standard were included, ranging from 10^-4 to 10^-3. Tubes were incubated, 30 minute incubations at 37° C. were terminated by rapid filtration under vacuum, on to GF/B filters, presoaked in 0.3% polyethyleneamine (PEl), with three 5 ml washes.

D-2 receptor = molecular target: T2, D-2 receptor (Bos taurus, UniProt P20288); assay: Competitive inhibition binding assay, 3H-spiperone (D2-binding), bovine striatal membranes
T2 construct: Striata were dissected on ice and membranes prepared as described earlier; from tissue; host or cells: bovine striatum (membranes; brains from a local slaughter house)
Method: as §1, §2, §3

[1] = 3H-spiperone binding, bovine striatal membranes, 30 minute at 37° C., Tris-HCl pH 7.4

T1 sequence (Q95136 whole entry): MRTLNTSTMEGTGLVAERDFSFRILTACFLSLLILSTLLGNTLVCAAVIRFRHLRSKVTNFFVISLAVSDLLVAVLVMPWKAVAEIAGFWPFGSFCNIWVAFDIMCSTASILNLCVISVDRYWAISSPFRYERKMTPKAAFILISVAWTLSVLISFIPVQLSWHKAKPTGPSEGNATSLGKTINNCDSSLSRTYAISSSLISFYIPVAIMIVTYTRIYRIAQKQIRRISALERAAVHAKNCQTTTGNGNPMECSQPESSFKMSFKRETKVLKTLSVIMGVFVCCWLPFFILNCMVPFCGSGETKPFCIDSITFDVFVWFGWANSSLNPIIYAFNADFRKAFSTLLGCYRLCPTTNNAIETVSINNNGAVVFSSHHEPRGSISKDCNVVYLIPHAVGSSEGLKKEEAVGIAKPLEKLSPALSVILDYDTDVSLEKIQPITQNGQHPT
T2 sequence (P20288 whole entry): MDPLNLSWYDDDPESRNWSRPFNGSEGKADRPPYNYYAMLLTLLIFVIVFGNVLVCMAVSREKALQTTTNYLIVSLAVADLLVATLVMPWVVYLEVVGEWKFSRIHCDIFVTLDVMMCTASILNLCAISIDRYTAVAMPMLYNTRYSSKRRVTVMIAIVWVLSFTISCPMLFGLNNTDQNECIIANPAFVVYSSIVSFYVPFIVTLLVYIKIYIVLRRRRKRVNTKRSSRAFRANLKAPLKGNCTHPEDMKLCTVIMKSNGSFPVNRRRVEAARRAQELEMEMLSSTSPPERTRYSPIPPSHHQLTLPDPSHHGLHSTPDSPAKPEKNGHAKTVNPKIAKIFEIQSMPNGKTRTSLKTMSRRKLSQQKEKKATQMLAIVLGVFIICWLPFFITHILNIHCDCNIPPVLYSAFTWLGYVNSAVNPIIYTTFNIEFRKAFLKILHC

Question: What does the source list for `CC(=O)Nc1cc(O)ccc1O` [2,5-dihydroxyacetanilide]?
Answer: Ki (dopamine D-1 receptor): 1200 to 2000 nM; D1 receptor selectivity (D1 versus D2) (dopamine D-1 receptor; from the Ki data of Table 1, D1 vs D2): more than 100 fold; Ki (D-2 receptor; [1]): 200000 nM

Question: What does the source list for `CN1CCc2cc(Cl)c(O)cc2[C@@H](c2ccccc2)C1` [Sch 23390, (R)-(+)-8-chloro-2,3,4,5-tetrahydro-3-methyl-5-phenyl-1H-3-benzazepin-7-olhemimaleate]?
Answer: Ki (dopamine D-1 receptor): 0.8 nM; Ki (D-2 receptor; [1]): 800 nM

Question: With (+) butaclamol as the molecule, how does the Ki (D-2 receptor; pH 7.4) read?
Answer: The Ki was 1 nM.
